Experimental data from patent publication US9840513B2 (AbbVie S.à.r.l., priority 2015, dated 2017).
pEC50: −log10 of the molar value.

Biological target: T1, F508delCFTR cell surface expression in CFBE41o-F508delCFTR-HRP cells (Homo sapiens, UniProt P13569, DEL508-508)
T1 construct: fused on or other part: Horseradish peroxidase (HRP) reporter inserted in the fourth exofacial (extracellular) loop of CFTR; expression is doxycycline-inducible
Assay: Cell Surface Expression-Horse Radish Peroxidase (CSE-HRP) Assay
Assay type: cell-based
Settings: for pEC50: CFBE41o-F508delCFTR-HRP cells, 18-24 hours at 33° C., 8-point curve, highest concentration 20 μM; for Maximum % activity (%): maximum at any tested concentration, normalized to on-plate positive control (3 μM)
Method in brief: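 Correctors incubated 18-24 h at 33 °C on doxycycline-induced (0.5 μg/mL, 72 h) CFBE41o-F508delCFTR-HRP cells, 3-fold series from 20 μM. After DPBS washes, luminol luminescence read; activity expressed relative to DMSO and a 3 μM positive control, EC50 fitted from triplicate plates.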

T1 sequence (P13569 with tags, fused parts or gaps DEL508-508 limits assumed): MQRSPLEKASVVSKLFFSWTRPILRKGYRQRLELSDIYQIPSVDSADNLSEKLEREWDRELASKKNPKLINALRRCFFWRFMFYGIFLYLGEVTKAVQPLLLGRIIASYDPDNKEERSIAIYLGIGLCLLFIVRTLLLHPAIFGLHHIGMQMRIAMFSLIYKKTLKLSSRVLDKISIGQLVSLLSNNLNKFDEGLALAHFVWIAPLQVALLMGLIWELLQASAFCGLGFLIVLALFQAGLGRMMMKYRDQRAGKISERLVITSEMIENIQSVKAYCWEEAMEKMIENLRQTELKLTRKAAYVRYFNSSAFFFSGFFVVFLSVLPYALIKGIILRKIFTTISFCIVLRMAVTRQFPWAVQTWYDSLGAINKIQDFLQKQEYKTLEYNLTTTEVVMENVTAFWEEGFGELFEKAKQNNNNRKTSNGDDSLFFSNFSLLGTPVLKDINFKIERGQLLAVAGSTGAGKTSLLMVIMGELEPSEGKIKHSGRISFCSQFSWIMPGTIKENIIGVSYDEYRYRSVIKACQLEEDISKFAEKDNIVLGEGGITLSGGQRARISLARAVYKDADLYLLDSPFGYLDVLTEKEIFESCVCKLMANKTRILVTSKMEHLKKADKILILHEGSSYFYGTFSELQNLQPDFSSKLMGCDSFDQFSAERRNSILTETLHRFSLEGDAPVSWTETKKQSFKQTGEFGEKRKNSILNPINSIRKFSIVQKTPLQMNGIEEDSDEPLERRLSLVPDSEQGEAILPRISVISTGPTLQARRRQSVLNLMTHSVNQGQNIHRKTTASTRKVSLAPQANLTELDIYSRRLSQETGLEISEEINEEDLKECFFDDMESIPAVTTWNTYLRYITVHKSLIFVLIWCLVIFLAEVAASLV
T1 sequence (P13569 919-1480 limits assumed, stated change not applied): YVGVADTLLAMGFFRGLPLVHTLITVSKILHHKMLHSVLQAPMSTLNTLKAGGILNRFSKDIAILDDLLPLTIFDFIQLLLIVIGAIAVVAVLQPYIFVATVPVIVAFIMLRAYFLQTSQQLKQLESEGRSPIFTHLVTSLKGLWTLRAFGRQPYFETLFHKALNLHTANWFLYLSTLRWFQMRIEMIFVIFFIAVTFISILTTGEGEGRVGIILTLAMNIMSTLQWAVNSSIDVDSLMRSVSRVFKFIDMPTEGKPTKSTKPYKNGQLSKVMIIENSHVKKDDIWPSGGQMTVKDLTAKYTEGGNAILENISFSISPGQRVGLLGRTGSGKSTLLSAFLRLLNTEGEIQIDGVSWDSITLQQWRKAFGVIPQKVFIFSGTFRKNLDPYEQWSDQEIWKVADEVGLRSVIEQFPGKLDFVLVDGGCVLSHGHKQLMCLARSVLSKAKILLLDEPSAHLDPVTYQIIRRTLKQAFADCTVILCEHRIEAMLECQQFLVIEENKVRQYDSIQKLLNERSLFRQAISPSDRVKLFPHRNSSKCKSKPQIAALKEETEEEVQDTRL

How did the pEC50 turn out when `COc1ccc2c(c1)O[C@@H](c1ccc(C(=O)O)cc1)C[C@H]2NC(=O)[C@]1(C)CCc2cc3c(cc21)OC(F)(F)O3` (single isomer, unassigned) [Example 49] was run?
Its pEC50 is 6.68.

And the “Maximum % activity (%)” value?
The value was 116%.

`COc1ccc2c(c1)O[C@@H](c1ccc(C(=O)NC3c4ccccc4CC3O)cn1)C[C@H]2NC(=O)[C@@]1(C)COc2cc3c(cc21)OC(F)(F)O3` (stereo partly drawn) [Example 221, 6-[(2R,4R)-4-{[(7R)-2,2-difluoro-7-methyl-6,7-dihydro-2H-furo[2,3-f][1,3]benzodioxole-7-carbonyl]amino}-7-methoxy-3,4-dihydro-2H-1-benzopyran-2-yl]-N-(2-hydroxy-2,3-dihydro-1H-inden-1-yl)pyridine-3-carboxamide] was tested. Which pEC50 did it give?
The pEC50 was 7.10.

And the “Maximum % activity (%)” value?
The value was 125%.

With `COC(=O)c1ccc([C@H]2C[C@@H](NC(=O)C3(C)COc4cc5c(cc43)OC(F)(F)O5)c3ccc(OC)cc3O2)cc1` (stereo partly drawn) [Example 15, methyl 4-{(2R,4R)-4-[(2,2-difluoro-7-methyl-6,7-dihydro-2H-furo[2,3-f][1,3]benzodioxole-7-carbonyl)amino]-7-methoxy-3,4-dihydro-2H-1-benzopyran-2-yl}benzoate] as the molecule, how does the pEC50 read?
Its pEC50 is 6.82.

And the “Maximum % activity (%)” value?
The value was 143%.

`CC(C)(C)c1cc2cc(NC(=O)[C@@]3(C)COc4cc5c(cc43)OC(F)(F)O5)ccc2[nH]1` [Example 131, (7R)—N-(2-tert-butyl-1H-indol-5-yl)-2,2-difluoro-7-methyl-6,7-dihydro-2H-furo[2,3-f][1,3]benzodioxole-7-carboxamide] was tested. Which pEC50 did it give?
The pEC50 was 5.88.

What about the “Maximum % activity (%)” value of the same molecule?
Its value is 173%.

With `C[C@]1(C(=O)Nc2cnc(N3CCC[C@H]3C(=O)O)cn2)COc2cc3c(cc21)OC(F)(F)O3` [Example 102, 1-(5-{[(7R)-2,2-difluoro-7-methyl-6,7-dihydro-2H-furo[2,3-f][1,3]benzodioxole-7-carbonyl]amino}pyrazin-2-yl)proline] as the molecule, how does the pEC50 read?
The pEC50 was 5.08.

And the “Maximum % activity (%)” value?
Its value is 61%.

With `COc1ccc2c(c1)O[C@H](Cn1ncccc1=O)C[C@@H]2NC(=O)[C@@]1(C)COc2cc3c(cc21)OC(F)(F)O3` [Example 284, (7R)-2,2-difluoro-N-{(2S,4S)-7-methoxy-2-[(6-oxopyridazin-1(6H)-yl)methyl]-3,4-dihydro-2H-1-benzopyran-4-yl}-7-methyl-6,7-dihydro-2H-furo[2,3-f][1,3]benzodioxole-7-carboxamide] as the molecule, how does the pEC50 read?
Its pEC50 is 5.40.

And the “Maximum % activity (%)” value?
The value was 40%.

`CC1(C)OC[C@H]([C@H](O)Cn2nc(-c3ccccc3)cc(NC(=O)[C@@]3(C)COc4cc5c(cc43)OC(F)(F)O5)c2=O)O1` [Example 106, (7R)—N-(2-{(2R)-2-[(4R)-2,2-dimethyl-1,3-dioxolan-4-yl]-2-hydroxyethyl}-3-oxo-6-phenyl-2,3-dihydropyridazin-4-yl)-2,2-difluoro-7-methyl-6,7-dihydro-2H-furo[2,3-f][1,3]benzodioxole-7-carboxamide] was tested. Which pEC50 did it give?
The pEC50 was 4.85.

What about the “Maximum % activity (%)” value of the same molecule?
Its value is 18%.

With `COc1ccc2c(c1)O[C@@H](CO)C[C@H]2NC(=O)[C@@]1(C)COc2cc3c(cc21)OC(F)(F)O3` [Example 277, (7R)-2,2-difluoro-N-[(2R,4R)-2-(hydroxymethyl)-7-methoxy-3,4-dihydro-2H-1-benzopyran-4-yl]-7-methyl-6,7-dihydro-2H-furo[2,3-f][1,3]benzodioxole-7-carboxamide] as the molecule, how does the pEC50 read?
The pEC50 was 6.18.

And the “Maximum % activity (%)” value?
Its value is 110%.

With `COC(=O)c1cccc(-n2nc(C3CC3)cc(NC(=O)[C@@]3(C)COc4cc5c(cc43)OC(F)(F)O5)c2=O)c1` [Example 28, methyl 3-[3-cyclopropyl-5-{[(7R)-2,2-difluoro-7-methyl-6,7-dihydro-2H-furo[2,3-f][1,3]benzodioxole-7-carbonyl]amino}-6-oxopyridazin-1(6H)-yl]benzoate] as the molecule, how does the pEC50 read?
Its pEC50 is 5.85.

What about the “Maximum % activity (%)” value of the same molecule?
Its value is 112%.

How did the pEC50 turn out when `COC(=O)[C@@H]1CCN(c2cccc(NC(=O)C3(C)COc4cc5c(cc43)OC(F)(F)O5)n2)C1` (stereo partly drawn) [Example 7, methyl (3R)-1-{6-[(2,2-difluoro-7-methyl-6,7-dihydro-2H-furo[2,3-f][1,3]benzodioxole-7-carbonyl)amino]pyridin-2-yl}pyrrolidine-3-carboxylate] was run?
The pEC50 was 5.42.

And the “Maximum % activity (%)” value?
Its value is 124%.

How did the pEC50 turn out when `C[C@]1(C(=O)N[C@@H]2C[C@H]([C@H]3CC[C@H](C(=O)N(CCO)Cc4ccccc4)CC3)Oc3cc(OC(F)(F)F)ccc32)COc2cc3c(cc21)OC(F)(F)O3` [Example 264, (7R)—N-[(2R,4R)-2-{trans-4-[benzyl(2-hydroxyethyl)carbamoyl]cyclohexyl}-7-(trifluoromethoxy)-3,4-dihydro-2H-1-benzopyran-4-yl]-2,2-difluoro-7-methyl-6,7-dihydro-2H-furo[2,3-f][1,3]benzodioxole-7-carboxamide] was run?
The pEC50 was 7.22.

And the “Maximum % activity (%)” value?
The value was 186%.

With `COc1ccc2c(c1)O[C@@H](c1ccc(C(=O)O)cc1)C[C@H]2NC(=O)C1(C)COc2cc3c(cc21)OC(F)(F)O3` (stereo partly drawn) [Example 16, 4-{(2R,4R)-4-[(2,2-difluoro-7-methyl-6,7-dihydro-2H-furo[2,3-f][1,3]benzodioxole-7-carbonyl)amino]-7-methoxy-3,4-dihydro-2H-1-benzopyran-2-yl}benzoic acid] as the molecule, how does the pEC50 read?
The pEC50 was 7.22.

What about the “Maximum % activity (%)” value of the same molecule?
Its value is 150%.

Which results are given for `CC(C)(C)c1cc2cc(NC(=O)[C@@]3(C)COc4cc5c(cc43)OC(F)(F)O5)c(F)cc2n1C[C@@H](O)COCc1ccccc1` [Example 132, (7R)—N-{1-[(2R)-3-(benzyloxy)-2-hydroxypropyl]-2-tert-butyl-6-fluoro-1H-indol-5-yl}-2,2-difluoro-7-methyl-6,7-dihydro-2H-furo[2,3-f][1,3]benzodioxole-7-carboxamide]?
pEC50: 6.48; Maximum % activity (%): 138%

What does the source list for `COc1ccc2c(c1)O[C@@H](c1ccc(C(=O)N(CCO)Cc3ccccc3)cn1)C[C@H]2NC(=O)[C@@]1(C)COc2cc3c(cc21)OC(F)(F)O3` [Example 210, N-benzyl-6-[(2R,4R)-4-{[(7R)-2,2-difluoro-7-methyl-6,7-dihydro-2H-furo[2,3-f][1,3]benzodioxole-7-carbonyl]amino}-7-methoxy-3,4-dihydro-2H-1-benzopyran-2-yl]-N-(2-hydroxyethyl)pyridine-3-carboxamide]?
pEC50: 7.52; Maximum % activity (%): 147%

Which results are given for `COC(=O)c1cccc([C@H]2C[C@@H](NC(=O)C3(C)CCc4cc5c(cc43)OC(F)(F)O5)c3ccc(OC)cc3O2)c1` (stereo partly drawn) [Example 52, methyl 3-{(2R,4R)-4-[(2,2-difluoro-5-methyl-6,7-dihydro-2H,5H-indeno[5,6-d][1,3]dioxole-5-carbonyl)amino]-7-methoxy-3,4-dihydro-2H-1-benzopyran-2-yl}benzoate]?
pEC50: 6.02; Maximum % activity (%): 77%

`Cc1ccc(NC(=O)[C@@]2(C)COc3cc4c(cc32)OC(F)(F)O4)nc1-c1cccc(C(O)CO)c1` (stereo partly drawn) [Example 126, (7R)—N-{6-[3-(1,2-dihydroxyethyl)phenyl]-5-methylpyridin-2-yl}-2,2-difluoro-7-methyl-6,7-dihydro-2H-furo[2,3-f][1,3]benzodioxole-7-carboxamide] was tested. Which pEC50 did it give?
Its pEC50 is 6.21.

And the “Maximum % activity (%)” value?
Its value is 140%.
